According to US20090314217A1, “APPARATUS AND METHOD FOR TREATING NON-HUMAN MAMMALS” (Under The Boardwalk Properties 8 (Proprietary) Limited, priority 2006, published 2009):

Assays:
[1] = Blood tests on the horses on the days of the race (Table 1); format: in vivo, horse
Procedure: The apparatus 10 was used in a confidential trial to treat five horses taking part in an endurance race. The five horses were called Moniq, Shamon, Pauli, Viola and Ophelia. During treatment, the average temperature inside the enclosure 22 was between 42° C. and 45° C. and an oxygen flow rate of 1 l/min was supplied to the ozonator 52. During treatment, the average heart-rate for the non-accustomed horses was 42 beats per minute. The superficial skin temperature measured on the neck and the point of the shoulder of the horses was 39° C. in each case.
Table 1 provides information on the blood tests conducted on the five horses, on the days of the race as indicated.

[2] = Blood oxygen tests immediately before and after transdermal ozone therapy (Table 2); format: in vivo, horse; settings: for PO2 / SO2: post-treat (immediately after therapy); for K+ blood concentration / Na+ blood concentration: post-treat; for K+ blood concentration: normal range 5.3-3.0; for Na+ blood concentration: normal range 150.0-133.0
Procedure: Blood tests were also conducted for three horses to determine when transdermal ozone therapy should be provided. The horses were Shamon, Pauli and Sinbad. The blood tests were conducted immediately before transdermal ozone therapy and immediately thereafter. For the horse Shamon, blood tests were also conducted 12 hours and 24 hours after transdermal ozone therapy.

[3] = horse Pauli, race day 2, pre-treated before race
[4] = horse Shamon, race day 3, treated day 2
[5] = horse Viola, race day 2, treated days 1 and 2, day 1 value 40

Compound: O=[O+][O-] [ozone]
- PCT [1, 3]: 0.05%
- PDW [1, 3]: 33.8
- PLT = platelets [1, 3]: 1.1e+11 L⁻¹
- RBC = red blood cell count [1, 3]: 1.05e+13 L⁻¹
- RDWc [1, 3]: 21.9%
- TBIL = total biliruben [1, 3]: 96 µmol/L
- TP = total protein [1, 3]: 79 gram/liter
- WBC = white blood cell count [1, 3]: 1.98e+10 L⁻¹
- ALB = albumin [1, 4]: 31 gram/liter
- AST = aspertate amino transferase [1, 4]: 722 Units/liter
- BUN = blood urea nitrogen [1, 4]: 9 mmol/L
- CA++ = calcium [1, 4]: 2.76 mmol/L
- CK = creatine kinase [1, 4]: 1450 International Units/liter
- CRE = creatinine [1, 4]: 122 µmol/L
- GGT = gamma glutamiel transferase [1, 4]: 27 Units/liter
- GLOB = globulin [1, 4]: 35 gram/liter
- GLU = glucose [1, 4]: 6.3 mmol/L
- GR % = granulocytes percentage [1, 4]: 78.4%
- GRA = granulocytes [1, 4]: 1.24e+10 L⁻¹
- HB = hemoglobin [1, 4]: 11.9 d/deciliter
- K+ = potassium [1, 4]: 3.8 mmol/L
- LY % = lymphocytes percentage [1, 4]: 16.4%
- LYM = lymphocytes [1, 4]: 2.59e+09 L⁻¹
- MCH = mean corpuscular hemoglobin [1, 4]: 15.8 pg
- MCHC = mean corpuscular hemoglobin concentration [1, 4]: 39.3 gram/deciliter
- MCV = mean corpuscular volume [1, 4]: 40 femtoliter
- MON % = monocytes percentage [1, 4]: 5.2%
- MON = monocytes [1, 4]: 8.2e+08 L⁻¹
- Na+ = sodium [1, 4]: 138 mmol/L
- PCT [1, 4]: 0.06%
- PDW [1, 4]: 35.8
- PLT = platelets [1, 4]: 1.02e+11 L⁻¹
- RBC = red blood cell count [1, 4]: 7.56e+12 L⁻¹
- RDWc [1, 4]: 22.1%
- TBIL = total biliruben [1, 4]: 52 µmol/L
- TP = total protein [1, 4]: 66 gram/liter
- WBC = white blood cell count [1, 4]: 1.58e+10 L⁻¹
- PCT ([1]; horse Viola, race day 2, treated days 1 and 2, day 1 value 0.09): 0.05%
- MON = monocytes ([1]; horse Viola, race day 2, treated days 1 and 2, day 1 value 0.64): 5.6e+08 L⁻¹
- LYM = lymphocytes ([1]; horse Viola, race day 2, treated days 1 and 2, day 1 value 1.34): 2.14e+09 L⁻¹
- GLU = glucose ([1]; horse Viola, race day 2, treated days 1 and 2, day 1 value 2.9): 5.7 mmol/L
- CA++ = calcium ([1]; horse Viola, race day 2, treated days 1 and 2, day 1 value 2.97): 2.88 mmol/L
- MON % = monocytes percentage ([1]; horse Viola, race day 2, treated days 1 and 2, day 1 value 4.3): 4.3%
- K+ = potassium ([1]; horse Viola, race day 2, treated days 1 and 2, day 1 value 5.1): 3.7 mmol/L
- LY % = lymphocytes percentage ([1]; horse Viola, race day 2, treated days 1 and 2, day 1 value 8.9): 16.3%
- BUN = blood urea nitrogen ([1]; horse Viola, race day 2, treated days 1 and 2, day 1 value 9): 9 mmol/L
- RBC = red blood cell count ([1]; horse Viola, race day 2, treated days 1 and 2, day 1 value 9.73): 9.03e+12 L⁻¹
- GRA = granulocytes ([1]; horse Viola, race day 2, treated days 1 and 2, day 1 value 13.0): 1.04e+10 L⁻¹
- WBC = white blood cell count ([1]; horse Viola, race day 2, treated days 1 and 2, day 1 value 15.0): 1.31e+10 L⁻¹
- HB = hemoglobin ([1]; horse Viola, race day 2, treated days 1 and 2, day 1 value 15.2): 14.4 d/deciliter
- MCH = mean corpuscular hemoglobin ([1]; horse Viola, race day 2, treated days 1 and 2, day 1 value 15.7): 16.0 pg
- GGT = gamma glutamiel transferase ([1]; horse Viola, race day 2, treated days 1 and 2, day 1 value 17): 18 Units/liter
- RDWc ([1]; horse Viola, race day 2, treated days 1 and 2, day 1 value 22.4): 22.6%
- ALB = albumin ([1]; horse Viola, race day 2, treated days 1 and 2, day 1 value 34): 30 gram/liter
- PDW ([1]; horse Viola, race day 2, treated days 1 and 2, day 1 value 35.8): 31.0
- MCHC = mean corpuscular hemoglobin concentration ([1]; horse Viola, race day 2, treated days 1 and 2, day 1 value 39.4): 39.0 gram/deciliter
- GLOB = globulin [1, 5]: 39 gram/liter
- MCV = mean corpuscular volume [1, 5]: 41 femtoliter
- TBIL = total biliruben ([1]; horse Viola, race day 2, treated days 1 and 2, day 1 value 41): 48 µmol/L
- TP = total protein ([1]; horse Viola, race day 2, treated days 1 and 2, day 1 value 75): 69 gram/liter
- GR % = granulocytes percentage ([1]; horse Viola, race day 2, treated days 1 and 2, day 1 value 86.8): 79.4%
- CRE = creatinine ([1]; horse Viola, race day 2, treated days 1 and 2, day 1 value 131): 99 µmol/L
- Na+ = sodium ([1]; horse Viola, race day 2, treated days 1 and 2, day 1 value 144): 138 mmol/L
- PLT = platelets ([1]; horse Viola, race day 2, treated days 1 and 2, day 1 value 146): 9.9e+10 L⁻¹
- CK = creatine kinase ([1]; horse Viola, race day 2, treated days 1 and 2, day 1 value 5896): 1599 International Units/liter
- AST = aspertate amino transferase ([1]; horse Viola, race day 2, treated days 1 and 2, day 1 value >2000): 1814 Units/liter
- PO2 ([2]; horse Pauli, pre-treat 39.30): 49.20 mmHg
- SO2 ([2]; horse Pauli, pre-treat 80.30): 87.10%
- K+ blood concentration ([2]; horse Pauli, pre-treat 3.73): 4.37 mmol/L
- Na+ blood concentration ([2]; horse Pauli, pre-treat 143.00): 144.30 mmol/L
- PO2 ([2]; horse Shamon, pre-treat 40.00): 52.70 mmHg
- SO2 ([2]; horse Shamon, pre-treat 74.60): 90.50%
- K+ blood concentration ([2]; horse Shamon, pre-treat 3.41): 4.09 mmol/L
- Na+ blood concentration ([2]; horse Shamon, pre-treat 136.00): 148.30 mmol/L
- PO2 ([2]; horse Sinbad, pre-treat 35.90): 48.00 mmHg
- SO2 ([2]; horse Sinbad, pre-treat 70.60): 86.40%
- K+ blood concentration ([2]; horse Sinbad, pre-treat 3.49): 3.04 mmol/L
- Na+ blood concentration ([2]; horse Sinbad, pre-treat 147.40): 150.20 mmol/L
- dehydration effect of transdermal ozone therapy ([2]; horses Shamon, Pauli, Sinbad): no dehydration effect
- Na+, K+ and Cl- blood concentrations versus normal ranges ([2]; horses Shamon, Pauli, Sinbad, before and after therapy): remained within normal ranges
